Calls of active or inactive are those of the source. The calls are words filed in the database; no cut-off is given here.
Experiments:
CT26 [1] = assay: Induction of mitochondrial damage in mouse CT26 cells at 10 to 40 nM measured after 24 hrs by transmission electron microscope (TEM) analysis; assay type: functional, cell-based; settings: dose 10-40 nM
HCT-116 [2] = assay: Induction of apoptosis in human HCT116 cells assessed as dead cells at 2.5 to 20 nM measured after 24 hrs by PI/Annexin V-FITC staining based flow cytometry; assay type: functional, cell-based; settings: dose 2.5-20 nM
HCT-116 [3] = assay: Antiproliferative activity against human HCT-116 cells assessed as dead cells at 2.5 to 20 nM measured after 24 hrs by Calcein-AM/PI staining based immunofluorescence analysis; assay type: functional, cell-based; settings: dose 2.5-20 nM
CT26 [4] = assay: Induction of endoplasmic reticulum (ER) stress in mouse CT26 cells assessed as increase in ROS level at 10 to 40 nM measured after 24 hrs by DCFH-DA analysis; assay type: functional, cell-based; settings: dose 10-40 nM
HCT-116 [5] = assay: Induction of endoplasmic reticulum (ER) stress in human HCT-116 cells assessed as increase in ROS level at 20 nM measured after 24 hrs by fluorescent analysis (reference value: 12%); assay type: functional
CT26 [6] = assay: Induction of endoplasmic reticulum (ER) stress in mouse CT26 cells assessed as increase in ROS level at 2.5 nM measured after 24 hrs by fluorescent analysis (reference value: 14%); assay type: functional
HCT-116 [7] = assay: Anti-tumor activity against human HCT-116 cells xenografted in BALB/c mouse assessed as inhibition of cell proliferation in tumor section at 3 mg/kg, ip thrice a week for three weeks by Ki-67 staining based assay; assay type: functional, organism-based; settings: time 3.0 weeks
HCT-116 [8] = assay: Cytotoxicity against human HCT-116 cells assessed as growth inhibition measured after 24 hrs in presence of GSK2606414 PERK inhibitor by CCK-8 assay; assay type: functional, cell-based
HCT-116 [9] = assay: Induction of cell cycle arrest in human HCT-116 cells […] assessed as accumulation of cells at G2/M phase at 2.5 to 10 nM by flow cytometry analysis; assay type: functional, cell-based; settings: dose 2.5-10 nM
Tubulin = assay: Binding affinity to wild type tubulin (unknown origin) by MST analysis; assay type: protein-complex assay, Homo sapiens
Tubulin (Homo sapiens) [10] = target: T1, Tubulin (Homo sapiens) (UniProt P68371+Q9H4B7+P0DPH7+P68366+Q13509+Q71U36+P04350+Q3ZCM7+P07437+P68363+Q9BQE3+Q6PEY2+Q13885+Q9BVA1+Q9BUF5); assay: Inhibition of tubulin polymerization (unknown origin); assay type: protein-complex assay; settings: dose 12.5-100 µM
Mus musculus [11] = assay: Antitumor activity against C57B/6-APCmin/+ mouse model assessed as increase in phosphorylation of eIF2alpha in tumors at 3 mg/kg, ip treated for 45 days relative to control; assay type: functional, organism-based; settings: time 45.0 day
HCT-116 [12] = assay: Cytotoxicity against human HCT-116 cells assessed as growth inhibition measured after 48 hrs by CCK-8 assay; assay type: functional
CT26 [13] = assay: Induction of endoplasmic reticulum (ER) stress in mouse CT26 cells assessed as organelle vacuoles at 10 to 20 nM measured after 24 hrs by transmission electron microscope (TEM) analysis; assay type: functional, cell-based; settings: dose 10-20 nM
HCT-116 [14] = assay: Induction of endoplasmic reticulum (ER) stress in human HCT-116 cells assessed as increase in ROS level at 10 nM measured after 24 hrs by fluorescent analysis (reference value: 12%); assay type: functional
CT26 [15] = assay: Induction of cell cycle arrest in mouse CT26 cells […] assessed as accumulation of cells at G2/M phase at 2.5 to 10 nM by flow cytometry analysis; assay type: functional, cell-based; settings: dose 2.5-10 nM
CT26 [16] = assay: Induction of endoplasmic reticulum (ER) stress in mouse CT26 cells assessed as increase p-eIF2alpha expression at 10 to 40 nM measured after 24 hrs by Western blot analysis; assay type: functional, cell-based; settings: dose 10-40 nM
Tubulin (Homo sapiens) [17] = target: T1, Tubulin (Homo sapiens); assay: Induction of microtubule stabilization in human HCT-116 cells at […] using 1:300 ratio of cell lysate/pronase incubated for 2 hrs by drug affinity reactive target stabilization (DARTS) assay; assay type: subcellular
HCT-116 [18] = assay: Induction of endoplasmic reticulum (ER) stress in human HCT-116 cells assessed as rough long-linear and irregularly dilated with locally verified expansion at 10 to 20 nM measured after 24 hrs by transmission electron microscope (TEM) analysis; assay type: functional, cell-based; settings: dose 10-20 nM
HCT-116 [19] = assay: Antiproliferative activity against human HCT116 cells assessed as inhibition of proliferation measured after 24 hrs by CCK-8 assay; assay type: functional, cell-based; settings: HCT-116, 24 h
Homo sapiens = organism: Homo sapiens; assay: Binding affinity to tubulin mutant (unknown origin) by MST analysis
CT26 [20] = assay: Induction of endoplasmic reticulum (ER) stress in mouse CT26 cells assessed as upregulation of cleaved-caspase 3 at 10 to 40 nM measured after 24 hrs by Western blot analysis; assay type: functional, cell-based; settings: dose 10-40 nM
HCT-116 [21] = assay: Induction of endoplasmic reticulum (ER) stress in human HCT-116 cells assessed as increase p-eIF2alpha expression at 10 to 20 nM measured after 24 hrs by Western blot analysis; assay type: functional, cell-based; settings: dose 10-20 nM
PC-12 = assay: Antiproliferative activity against rat PC12 cells assessed as inhibition of proliferation at 2.5 to 20 nM measured after 24 hrs by CCK-8 assay; assay type: toxicity, cell-based; settings: pc-12, 24 h, 0.02 µM, dose 2.5-20 nM
HCT-116 [22] = assay: Induction of endoplasmic reticulum (ER) stress in human HCT-116 cells assessed as increase in ROS level at 5 nM measured after 24 hrs by fluorescent analysis (reference value: 12%); assay type: functional
Tubulin (Homo sapiens) [23] = target: T1, Tubulin (Homo sapiens); assay: Disruption of microtubule assembly in human HCT-116 cells assessed as reduced/disorganized microtubule network measured after 24 hrs by high-resolution microscopy; assay type: cell-based
Mus musculus [24] = assay: Antitumor activity against C57B/6-APCmin/+ mouse model assessed as increase in phosphorylation of IRE1alpha in tumors at 3 mg/kg, ip treated for 45 days relative to control; assay type: functional, organism-based; settings: time 45.0 day
HCT-116 [25] = assay: Anti-tumor activity against human HCT-116 cells xenografted in BALB/c mouse assessed as apoptosis in tumor section at 3 mg/kg, ip thrice a week for three weeks by TUNEL staining based assay; assay type: functional, organism-based; settings: time 3.0 weeks
Colon cancer organoid = assay: Antitumor activity against patient-derived Colorectal cancer organoid model assessed as inhibition of organoid growth by immunofluorescence assay; assay type: functional, tissue-based; settings: Homo sapiens
CT26 [26] = assay: Disruption of microtubule assembly in mouse CT26 cells assessed as reduced/disorganized microtubule network measured after 24 hrs by high-resolution microscopy; assay type: functional, cell-based
CT26 [27] = assay: Induction of endoplasmic reticulum (ER) stress in mouse CT26 cells assessed as increase p-PERK expression at 10 to 40 nM measured after 24 hrs by Western blot analysis; assay type: functional, cell-based; settings: dose 10-40 nM
CT26 [28] = assay: Induction of apoptosis in mouse CT26 cells assessed as dead cells at 2.5 to 40 nM measured after 24 hrs by PI/Annexin V-FITC staining based flow cytometry; assay type: functional, cell-based; settings: dose 2.5-40 nM
HCT-116 [29] = assay: Induction of endoplasmic reticulum (ER) stress in human HCT-116 cells assessed as organelle vacuoles at 10 to 20 nM measured after 24 hrs by transmission electron microscope (TEM) analysis; assay type: functional, cell-based; settings: dose 10-20 nM
Mus musculus [30] = assay: Antitumor activity against C57BL/6-APCmin/+ mouse model assessed as reduction in number of tumors in intestine at 3 mg/kg, ip treated for 45 days relative to control; assay type: functional, organism-based; settings: time 45.0 day
HCT-116 [31] = assay: Induction of endoplasmic reticulum (ER) stress in human HCT-116 cells assessed as increase in ROS level at 10 to 20 nM measured after 24 hrs by DCFH-DA analysis; assay type: functional, cell-based; settings: dose 10-20 nM

SMILES: COc1cc(C(=O)/C(C)=C/c2c[nH]c3cc(F)ccc23)cc(OC)c1OC
- Activity (CT26 [1]): Active
- Activity (HCT-116 [2]): Active
- Activity (HCT-116 [3]): Active
- Activity (CT26 [4]): Active
- Activity (HCT-116 [5]): 74.4%
- Activity (CT26 [6]): 14.5%
- Activity (HCT-116 [7]): Active
- Activity (HCT-116 [8]): inactive
- Activity (HCT-116 [9]): Active
- Kd (Tubulin): 136 nM
- inhibition (Tubulin (Homo sapiens) [10]): Dose-Dependent Effect
- Activity (Mus musculus [11]): Active
- GI50 (HCT-116 [12]): 79 nM
- Activity (CT26 [13]): Active
- Activity (HCT-116 [14]): 73.8%
- Activity (CT26 [15]): Active
- Activity (CT26 [16]): Active
- Activity (Tubulin (Homo sapiens) [17]): Active
- Activity (HCT-116 [18]): Active
- IC50 (HCT-116 [19]): 4.52 nM
- Activity (Homo sapiens): inactive
- Activity (CT26 [20]): Active
- Activity (HCT-116 [21]): Active
- Activity (PC-12): Non-Toxic
- Activity (HCT-116 [22]): 48.5%
- Activity (Tubulin (Homo sapiens) [23]): Active
- Activity (Mus musculus [24]): Active
- Activity (HCT-116 [25]): Active
- IC50 (Colon cancer organoid): 2.06 nM
- Activity (CT26 [26]): Active
- Activity (CT26 [27]): Active
- Activity (CT26 [28]): Active
- Activity (HCT-116 [29]): Active
- Activity (Mus musculus [30]): Active
- Activity (HCT-116 [31]): Active

From ChEMBL document CHEMBL5620382, “Fluoroindole chalcone analogues targeting the colchicine binding site of tubulin for colorectal oncotherapy” (Eur J Med Chem, 2023)
